According to patent US9352010B2, “Treatment of HIV-1 infection and AIDS” (The J. David Gladstone Institutes, priority 2011, dated 2016):

System: caspase-1 and caspase-3
Assay: Intracellular caspase activity after spinoculation with NL4-3
Format: cell-based, human
Conditions: AZT 5 μM, efavirenz 100 nM, T20 10 μg/ml, 3 days
Procedure: HLACs were subjected to intracellular analysis of caspases activity and cytokine expression 3 days after spinoculation with NL4-3. Intracellular caspase-1, -3, -6, -8, and -9 activities were analyzed with a CaspaLux1 E1D2, Phiphilux G1D2, CaspaLux6 J1D2, CaspaLux 8 L1D2, and CaspaLux 9 M1D2 kits (OncoImmunin), respectively, at 37° C. for 15 min, followed by staining with PE anti-CD4, and APC anti-CD8, at 4° C. for 15 min. For annexin V analysis, cells were stained with APC-conjugated annexin V together with PE anti-CD4, FITC anti-CD8, and with 0.5 μg/ml ethidium monoazide (E-1374, Molecular Probes) for 15 min at 4° C. For intracellular cytokine capture, cells were incubated with 2 μM protein transport inhibitor GolgiStop (BD Biosciences) containing monensin, and 5 μg/ml Brefeldin A (EMD biosciences) at 37° C. for 6 hours before analysis. Cells were then stained with anti-CD4 and anti-CD8 antibodies at 4° C. for 15 min, and fixed in 1% paraformaldehyde at 4° C. for 1 hour. Fixed cells were washed extensively with PBS and were stained in 0.2% saponin buffer (PBS+2% FBS+0.2% saponin) containing PE anti-human TNFα (R&D Systems), FITC anti-human IFNβ (PBL Biomedical laboratories), PE anti-human IL-1β (BD Biosciences), or APC anti-phosphorylated p53 at serine 37 (pS37) at 4° C. for 1 hour.

enfuvirtide
activation of caspase-1 and caspase-3 in abortively infected CD4 T-cells: prevented activation of these caspases

O=C1Nc2ccc(Cl)cc2[C@@](C#CC2CC2)(C(F)(F)F)O1 [efavirenz]
activation of caspase-1 and caspase-3 in abortively infected CD4 T-cells: prevented activation of these caspases
